From ChEMBL document CHEMBL1201862, “PubChem BioAssay data set” (2004)
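Results reflect a 48-hour exposure of cells in 96-well plates to compound at five concentrations. At the GI50, growth is halved.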 The source made the active and inactive calls. Cut-off read from the data, not from the text of the source: active = GI50 up to about 1.1 µM and inactive = higher.

Columns and labels:
Test in all cases: DTP human tumour cell line panel, 48 h
786-0 = tested on: 786-0
A498 = tested on: A498
A549 = tested on: A549
ACHN = tested on: ACHN
BT-549 = tested on: BT-549
CAKI-1 = tested on: CAKI-1
CCRF-CEM = tested on: CCRF-CEM
COLO 205 = tested on: COLO 205
DU-145 = tested on: DU-145
EKVX = tested on: EKVX
HCC 2998 = tested on: HCC 2998
HCT-116 = tested on: HCT-116
HCT-15 = tested on: HCT-15
HL-60 = tested on: HL-60
HOP-62 = tested on: HOP-62
HOP-92 = tested on: HOP-92
HT-29 = tested on: HT-29
Hs-578T = tested on: Hs-578T
IGROV-1 = tested on: IGROV-1
K562 = tested on: K562
KM12 = tested on: KM12
LOX IMVI = tested on: LOX IMVI
M14 = tested on: M14
MCF7 = tested on: MCF7
MDA-MB-231 = tested on: MDA-MB-231
MDA-MB-435 = tested on: MDA-MB-435
MDA-N = tested on: MDA-N
MOLT-4 = tested on: MOLT-4
NCI-H226 = tested on: NCI-H226
NCI-H23 = tested on: NCI-H23
NCI-H460 = tested on: NCI-H460
NCI-H522 = tested on: NCI-H522
NCI/ADR-RES = tested on: NCI/ADR-RES
OVCAR-3 = tested on: OVCAR-3
OVCAR-4 = tested on: OVCAR-4
OVCAR-5 = tested on: OVCAR-5
OVCAR-8 = tested on: OVCAR-8
PC-3 = tested on: PC-3
RPMI-8226 = tested on: RPMI-8226
RXF 393 = tested on: RXF 393
SF-268 = tested on: SF-268
SF-295 = tested on: SF-295
SF-539 = tested on: SF-539
SK-MEL-28 = tested on: SK-MEL-28
SK-MEL-2 = tested on: SK-MEL-2
SK-MEL-5 = tested on: SK-MEL-5
SN12C = tested on: SN12C
SNB-19 = tested on: SNB-19
SR = tested on: SR
SW-620 = tested on: SW-620
T47D = tested on: T47D
TK-10 = tested on: TK-10
U-251 = tested on: U-251
UACC-257 = tested on: UACC-257
UACC-62 = tested on: UACC-62
UO-31 = tested on: UO-31
Malme-3M = tested on: Malme-3M
SK-OV-3 = tested on: SK-OV-3
SNB-75 = tested on: SNB-75

Measured: GI50

CC(=O)Nc1cc2cc(NS(=O)(=O)c3ccc(Cl)c(Cl)c3)ccc2oc1=O
90.6 µM: HCT-15
inactive: 786-0 17.4 µM | A498 20 µM | A549 32.7 µM | ACHN 42 µM | BT-549 49.1 µM | CAKI-1 20 µM | CCRF-CEM 53.8 µM | COLO 205 25.5 µM | DU-145 > 100 µM | EKVX 68.5 µM | HCC 2998 40.5 µM | HCT-116 28.2 µM | HL-60 43.5 µM | HOP-62 19.8 µM | HOP-92 20.8 µM | HT-29 35.3 µM | Hs-578T 22.4 µM | IGROV-1 75.9 µM | K562 56.5 µM | KM12 25.1 µM | LOX IMVI 20 µM | M14 64.1 µM | MCF7 21.2 µM | MDA-MB-231 17.2 µM | MDA-MB-435 36.1 µM | MDA-N 51.8 µM | MOLT-4 27.4 µM | NCI-H226 31.8 µM | NCI-H23 > 100 µM | NCI-H460 37.8 µM | NCI-H522 23.4 µM | NCI/ADR-RES 34.2 µM | OVCAR-3 > 100 µM | OVCAR-4 30.3 µM | OVCAR-5 > 100 µM | OVCAR-8 17.8 µM | PC-3 22.4 µM | RPMI-8226 40.3 µM | RXF 393 12.5 µM | SF-268 26.2 µM | SF-295 19.6 µM | SF-539 25.1 µM | SK-MEL-28 35 µM | SK-MEL-2 20.3 µM | SK-MEL-5 28.1 µM | SN12C 25.8 µM | SNB-19 34.4 µM | SR 33.9 µM | SW-620 50.7 µM | T47D 3.21 µM | TK-10 43.2 µM | U-251 22.6 µM | UACC-257 > 100 µM | UACC-62 24.4 µM | UO-31 46 µM

COc1cc(S(=O)(=O)Nc2nc(-c3ccc(/N=C/c4cccs4)cc3)cs2)ccc1Cl
36.1 µM: HCT-15
inactive: 786-0 > 100 µM | A498 > 100 µM | A549 > 100 µM | ACHN > 100 µM | BT-549 37 µM | CAKI-1 > 100 µM | CCRF-CEM 33.7 µM | COLO 205 > 100 µM | DU-145 > 100 µM | EKVX > 100 µM | HCC 2998 > 100 µM | HCT-116 54.6 µM | HL-60 33.9 µM | HOP-62 > 100 µM | HOP-92 37.2 µM | HT-29 > 100 µM | Hs-578T > 100 µM | IGROV-1 33.7 µM | K562 33.5 µM | KM12 67.1 µM | LOX IMVI 31 µM | M14 > 100 µM | MCF7 36.6 µM | MDA-MB-231 95.1 µM | MDA-MB-435 > 100 µM | MDA-N > 100 µM | MOLT-4 27.5 µM | Malme-3M > 100 µM | NCI-H226 > 100 µM | NCI-H23 47.1 µM | NCI-H460 > 100 µM | NCI-H522 28.4 µM | NCI/ADR-RES > 100 µM | OVCAR-3 27.5 µM | OVCAR-4 38.9 µM | OVCAR-5 > 100 µM | OVCAR-8 40.7 µM | PC-3 76.2 µM | RXF 393 20.4 µM | SF-268 56.6 µM | SF-295 > 100 µM | SF-539 34 µM | SK-MEL-28 > 100 µM | SK-MEL-2 39.5 µM | SK-MEL-5 > 100 µM | SK-OV-3 > 100 µM | SN12C 28.8 µM | SNB-19 > 100 µM | SNB-75 33.8 µM | SR 21.7 µM | SW-620 35.5 µM | T47D 84.3 µM | TK-10 > 100 µM | U-251 81.1 µM | UACC-257 > 100 µM | UACC-62 19.8 µM | UO-31 58.6 µM

CC1(C)OCC(C2OC(On3nnc4ccc(Cl)cc43)C3OC(C)(C)OC23)O1 (stereo not drawn)
inactive: 786-0 > 100 µM | A498 11.7 µM | A549 > 100 µM | ACHN > 100 µM | BT-549 > 100 µM | CAKI-1 > 100 µM | CCRF-CEM > 100 µM | COLO 205 > 100 µM | DU-145 > 100 µM | EKVX > 100 µM | HCT-116 > 100 µM | HL-60 > 100 µM | HOP-62 > 100 µM | HOP-92 > 100 µM | HT-29 > 100 µM | Hs-578T > 100 µM | IGROV-1 > 100 µM | K562 22.4 µM | KM12 > 100 µM | LOX IMVI > 100 µM | M14 > 100 µM | MCF7 > 100 µM | MDA-MB-231 > 100 µM | MDA-MB-435 > 100 µM | MDA-N > 100 µM | MOLT-4 > 100 µM | Malme-3M > 100 µM | NCI-H226 66.1 µM | NCI-H23 > 100 µM | NCI-H460 > 100 µM | NCI-H522 > 100 µM | NCI/ADR-RES > 100 µM | OVCAR-3 > 100 µM | OVCAR-4 > 100 µM | OVCAR-5 > 100 µM | OVCAR-8 > 100 µM | PC-3 > 100 µM | RPMI-8226 > 100 µM | RXF 393 > 100 µM | SF-268 > 100 µM | SF-295 > 100 µM | SF-539 > 100 µM | SK-MEL-28 > 100 µM | SK-MEL-2 > 100 µM | SK-MEL-5 > 100 µM | SK-OV-3 > 100 µM | SN12C > 100 µM | SNB-19 > 100 µM | SNB-75 98.9 µM | SR > 100 µM | SW-620 > 100 µM | T47D > 100 µM | TK-10 > 100 µM | U-251 > 100 µM | UACC-257 > 100 µM | UACC-62 > 100 µM
> 100 µM: HCT-15

COc1ccc(C2=CC(C(C)=C(C(N)=O)C(N)=O)C=C(c3ccc(Br)cc3)C2)c(OC)c1 (stereo not drawn)
inactive: 786-0 > 100 µM | A498 > 100 µM | A549 > 100 µM | ACHN > 100 µM | BT-549 > 100 µM | CAKI-1 > 100 µM | CCRF-CEM > 100 µM | COLO 205 > 100 µM | DU-145 > 100 µM | EKVX 44.2 µM | HCC 2998 > 100 µM | HCT-116 > 100 µM | HL-60 > 100 µM | HOP-62 > 100 µM | HOP-92 31.8 µM | HT-29 > 100 µM | Hs-578T 63.1 µM | IGROV-1 94.6 µM | K562 > 100 µM | KM12 > 100 µM | LOX IMVI > 100 µM | M14 > 100 µM | MCF7 > 100 µM | MDA-MB-231 > 100 µM | MDA-MB-435 > 100 µM | MDA-N > 100 µM | MOLT-4 > 100 µM | NCI-H226 > 100 µM | NCI-H23 > 100 µM | NCI-H460 > 100 µM | NCI-H522 > 100 µM | NCI/ADR-RES > 100 µM | OVCAR-3 > 100 µM | OVCAR-4 > 100 µM | OVCAR-5 > 100 µM | OVCAR-8 > 100 µM | PC-3 50.5 µM | RPMI-8226 > 100 µM | RXF 393 > 100 µM | SF-268 > 100 µM | SF-295 > 100 µM | SK-MEL-28 > 100 µM | SK-MEL-2 > 100 µM | SK-MEL-5 > 100 µM | SK-OV-3 > 100 µM | SN12C > 100 µM | SNB-19 > 100 µM | SNB-75 66.1 µM | SR > 100 µM | SW-620 > 100 µM | T47D 39.1 µM | TK-10 > 100 µM | U-251 > 100 µM | UACC-257 > 100 µM | UACC-62 > 100 µM | UO-31 39.9 µM
> 100 µM: HCT-15

[N-]=[N+]=Nc1c(C=O)c(=O)n(-c2ccccc2)c2ccccc12
inactive: 786-0 18.5 µM | A549 39.3 µM | ACHN 19 µM | BT-549 31.8 µM | CAKI-1 14 µM | CCRF-CEM 3.09 µM | COLO 205 13.5 µM | DU-145 25.5 µM | HCC 2998 19.1 µM | HCT-116 > 10 µM | HL-60 52.4 µM | HOP-62 29.3 µM | HOP-92 13.4 µM | HT-29 23.1 µM | Hs-578T 25.1 µM | IGROV-1 16.6 µM | K562 3.89 µM | KM12 54.5 µM | LOX IMVI 14.8 µM | M14 18 µM | MCF7 27 µM | MDA-MB-231 40.3 µM | MDA-MB-435 18.5 µM | MDA-N 37.8 µM | MOLT-4 2.63 µM | Malme-3M 15.6 µM | NCI-H23 16.8 µM | NCI-H460 29.6 µM | NCI/ADR-RES 23.7 µM | OVCAR-3 16.1 µM | OVCAR-4 16.7 µM | OVCAR-5 55.8 µM | PC-3 14.4 µM | RPMI-8226 > 10 µM | RXF 393 12.1 µM | SF-268 47.8 µM | SF-295 75.5 µM | SF-539 73.5 µM | SK-MEL-28 16.9 µM | SK-MEL-2 29.2 µM | SK-MEL-5 14.1 µM | SK-OV-3 31.5 µM | SN12C 42.3 µM | SNB-19 57 µM | SNB-75 24.8 µM | SR 6.64 µM | SW-620 2.51 µM | T47D 13.9 µM | TK-10 19.5 µM | U-251 28.6 µM | UACC-257 22.9 µM | UACC-62 15 µM | UO-31 16.2 µM
18.4 µM: HCT-15
active: A498 0.0778 µM
